Results reported in US8518894B2, “Human milk peptides” (priority 2009, dated 2013).
Entries after “also recorded” stand apart in the source; their conditions may differ.

Columns and labels:
[1] = Oxygen Radical Absorbance Capacity (ORAC) assay; settings: synthetic peptides; for ORAC value (scavenging activity): per g of peptide
Method: This assay measures the scavenging capacity of antioxidant nutrients against the peroxyl radical [Diehl-Jones W L and Askin D F. American Association of Critical Care Nurses (AACN) Clin Issues 15: 83 (2004)], which is one of the most common reactive oxygen species (ROS) in the human body. […] To identify the peptides in fraction #23, the sample was injected into an LC-MS/MS system.

[2] = tested on: MCP-1 secretion from human PBMCs; test: MCP-1 secretion from peripheral blood mononuclear cells after peptide exposure (sandwich ELISA); type: cell-based; settings: 24 h exposure, 20 and 100 μg/ml
Method: FIG. 13 illustrates stimulation of MCP-1 and Gro-a sectretion from human peripheral blood mononuclear cells (PBMCs) after 24 h exposure to peptides 1-8 (SEQ ID NOs. 1, 29, 2, 8, 9, 19, and 22, respectively) from fraction #23. The experiment was carried out in 4 biological replicates (4 different donors), with 2 technical repeats in each biological experiment. The peptide fragments were tested at 2 concentrations, 20 and 100 μg/ml and MCP-1 and Gro-a were detected by sandwich ELISA kits (BioSource International and eBiosciences, respectively). A positive control peptide (1002) was used in the experiment.
Venous blood from healthy volunteers is collected in Vacutainer® collection tubes containing sodium heparin as an anticoagulant (BD Biosciences). […] The buffy coat is collected and washed twice in RPMI 1640 complete medium, and the number of PBMCs can be determined by trypan blue exclusion. […]
Following 24 hrs of peptide exposure, the tissue culture supernatants are centrifuged at 16,000G (13,000 rpm) at 4° C. for 5 minutes in an IEC MicroMax centrifuge to obtain cell-free samples. […] Cytokines/chemokines are detected by sandwich ELISA kits (BioSource International or eBiosciences) and multiplex kit (Luminex). […] The concentration of the cytokines/chemokines in the culture medium can be quantified by establishing a standard curve with serial dilutions of the recombinant human cytokines/chemokines. […]

[3] = tested on: TNF-α expression in RAW 264.7 cells; test: Cytokine expression in LPS-activated mouse macrophage cell line, TNF-α ELISA; type: cell-based; settings: 1 μg/ml LPS, 24 hours
[4] = tested on: IL-6 expression in RAW 264.7 cells; test: Cytokine expression in LPS-activated mouse macrophage cell line, IL-6 ELISA; type: cell-based; settings: 100 μg/ml peptide, 1 μg/ml LPS, 24 hours
Method: FIG. 11 illustrates the effects of peptides of fraction #23 and tryptophan on TNF-α and IL-6 expression in RAW 246.7 cells. All values expressed in pg/ml +/− SD. Cells grown in 24-well culture tissue-culture grade plates (Corning) and incubated with 100 μg/ml of one of eight milk peptides 1-8 (SEQ ID NOs. 28, 1, 29, 2, 8, 9, 19, and 22, respectively) and 1 μg/ml LPS.
A mouse macrophage cell line (RAW 264.7) was activated with 1 μg/m1 lipopolysaccharide (LPS), a gram negative bacterial cell wall product which induces the expression of inflammatory cytokines (Interleukin-6 [IL-6] and Tumor Necrosis Factor alpha [TNF-α]) via activation of toll-like receptors [Wu, T. T. et al. Toxicol Let. 195-202 (2009). After incubation with LPS for 24 hours in the presence of the peptides from example 7, cell supernatant was collected and mouse IL-6 and TNF-α titres were determined by a standard micro-plate enzyme-linked immunosorbent assay (ELISA) technique (e-Biosciences).

[5] = tested on: IL-8 secretion in Caco-2 cells; test: LPS induced IL-8 secretion in Caco-2 cell culture model; type: cell-based; settings: 50, 100, 200 μg/ml, 4, 8, 20, 24 h
From the text: Culture medium for non-peptide treated cells was used as control. *P<0.05 indicates a significant difference between the 23-8 treated group and the control group (one-way ANOVA, n=4).

| Molecule | ORAC value (scavenging activity) [1] | radical scavenging activity in ORAC assay (in words) [1] | TNF-α expression compared to the control (cell culture medium plus LPS) ([3]; 100 μg/ml peptide) | also measured |
| --- | --- | --- | --- | --- |
| HNPI (listed as Homo sapiens) [SEQ ID NO. 28, fragment from human beta casein in fraction #23] | 114 ±14 uM Trolox/g |  |  | levels of MCP-1 from PBMCs [2]: robust response; also recorded: significant activity |
| SEQ ID NO. 9: human kappa-casein f(53-58), identified in fraction #23 (NPYVPR; listed as Homo sapiens) | 3380±592 uM Trolox/g |  |  |  |
| SEQ ID NO. 19: tyrosine-containing peptide of fraction #23, not matched to a human milk protein (YGYTGA; listed as Homo sapiens) | 8205±552 uM Trolox/g | most radical scavenging properties | significantly inhibited |  |
| SEQ ID NO. 8: human kappa-casein f(31-36), identified in fraction #23 (VPNSYP; listed as Homo sapiens) | 3462±560 uM Trolox/g |  |  |  |
| VPVQA (listed as Homo sapiens) [SEQ ID NO. 1, fragment from human beta casein in fraction #23] |  | No scavenging activities | significantly inhibited |  |
| N[C@@H](Cc1c[nH]c2ccccc12)C(=O)O [tryptophan, L-tryptophan, reference compound] |  |  |  | TNF-α expression compared to the control (cell culture medium plus LPS) ([3]; 100 μM tryptophan): greatest inhibition |
| ISELGW (listed as Homo sapiens) [SEQ ID NO. 22, tryptophan-containing peptide of fraction #23, not matched to a human milk protein] |  | most radical scavenging properties | significantly inhibited | IL-6 expression [4]: significantly reduced; levels of MCP-1 from PBMCs [2]: robust response; also recorded: significantly increased; LPS induced interleukin-8 (IL-8) secretion [5]: decrease |
| PLAQPA (listed as Homo sapiens) [SEQ ID NO. 29, fragment from human beta casein in fraction #23] |  | No scavenging activities | significantly inhibited |  |
| SEQ ID NO. 2: human beta-casein f(169-173), identified in fraction #23 (VPYPQ; listed as Homo sapiens) | 3940±623 uM Trolox/g |  | significantly inhibited |  |
